According to patent publication US20060058317A1, “Oxazolidinone derivatives as antibacterial” (AstraZeneca AB, priority 2002, published 2006):
Converted amounts (≈) assume the structure as drawn.

How the values were obtained:
Type in all cases: cell-based
Haemophilus influenzae = test: MIC in Mueller-Hinton broth, Haemophilus influenzae; conditions: Mueller-Hinton broth with hemin and NAD, aerobic, 24 hours, 37° C., 5×10^4 CFU/well
Protocol: (§1) The following results were obtained on a standard in-vitro test system. The activity is described in terms of the minimum inhibitory concentration (MIC) determined by the agar-dilution technique with an inoculum size of 10^4 CFU/spot. Typically, compounds are active in the range 0.01 to 256 μg/ml.
(§2) Streptococci and enterococci were tested on agar supplemented with 5% defibrinated horse blood, an inoculum of 10^4 CFU/spot and an incubation temperature of 37° C., in an atmosphere of 5% carbon dioxide for 48 hours—blood is required for the growth of some of the test organisms. Fastidious Gram negative organisms were tested in Mueller-Hinton broth, supplemented with hemin and NAD, grown aerobically for 24 hours at 37° C., and with an innoculum of 5×10^4 CFU/well.

Streptococcus pneumoniae = test: MIC by agar dilution, Streptococcus pneumoniae; conditions: agar with 5% defibrinated horse blood, 10^4 CFU/spot, 37° C., 5% carbon dioxide, 48 hours
Protocol: as §1, §2

[1] = system: Staphylococcus aureus MSQS (methicillin sensitive and quinolone sensitive); test: MIC by agar dilution, Staphylococcus aureus MSQS; conditions: S. aureus MSQS, 10^4 CFU/spot, 37° C., 24 hours
Protocol: as §1
(§3) Staphylococci were tested on agar, using an inoculum of 10^4 CFU/spot and an incubation temperature of 37° C., for 24 hours—standard test conditions for the expression of methicillin resistance.

[2] = system: Staphylococcus aureus MRQR (methicillin resistant and quinolone resistant); test: MIC by agar dilution, Staphylococcus aureus MRQR; conditions: S. aureus MRQR, 10^4 CFU/spot, 37° C., 24 hours
Protocol: as §1, §3

Enterococcus faecium = test: MIC by agar dilution, Enterococcus faecium; conditions: agar with 5% defibrinated horse blood, 10^4 CFU/spot, 37° C., 5% carbon dioxide, 48 hours
Protocol: as §1, §2

Moraxella catarrhalis = test: MIC in Mueller-Hinton broth, Moraxella catarrhalis; conditions: Mueller-Hinton broth with hemin and NAD, aerobic, 24 hours, 37° C., 5×10^4 CFU/well
Protocol: as §1, §2

[3] = system: Linezolid Resistant Streptococcus pneumoniae; test: MIC by agar dilution, Linezolid Resistant Streptococcus pneumoniae; conditions: agar with 5% defibrinated horse blood, 10^4 CFU/spot, 37° C., 5% carbon dioxide, 48 hours
Protocol: as §1, §2

Cn1nnc(-c2ccc(-c3ccc(N4C[C@H](COc5ccon5)OC4=O)cc3F)cn2)n1 [Example 1]
MIC (Haemophilus influenzae): 64 µg/mL (≈ 146 µM)
MIC (Streptococcus pneumoniae): 1 µg/mL (≈ 2.29 µM)
MIC [1]: 4 µg/mL (≈ 9.15 µM)
MIC [2]: 4 µg/mL (≈ 9.15 µM)
MIC (Enterococcus faecium): 4 µg/mL (≈ 9.15 µM)
MIC (Moraxella catarrhalis): 4 µg/mL (≈ 9.15 µM)
MIC [3]: 64 µg/mL (≈ 146 µM)
